# Results from patent US11865116B2, “Treatment of cancer with TG02” (Cothera Bioscience, Inc., priority 2016, dated 2024).
# Tested on: mouse glioma GL261 cells
# Assay: Mouse glioma GL261 cell allograft model, survival
# Format: in vivo
# Conditions: female C57BL/6 albino mice, GL261 cells in the striatum; vehicle 24 days
# Description: Mouse glioma GL261 cells were injected stereotactically into the striatum of female C57BL/6 albino mice (n=5-7 per cohort) followed by vehicle, TG02, TMZ, and TG02+TMZ combination treatment. A median overall survival of 24, 24.5, 27.5, and 32 days, respectively was observed. The result was analyzed using Logrank test for trend in GraphPad Prism software (Chi square=9.063, df=1, P value=0.0026**). The turmor burden was determined by bioluminescence imaging (BLI) taken using the PerkinElmer IVIS® Spectrum. The intensity of BLI was calculated and normalized to the initial intensity at day 5.
smiles,measurement,value
"Cn1nnc2c(C(N)=O)ncn2c1=O [TMZ, temozolomide, reference compound]",median overall survival,27.5 days
